Consider 30 molecules from patent US11952358B2, “Flavan-3-ol analogs and anti-inflammatory activity” (Hong Kong Baptist University, priority 2021, dated 2024).

The first data set deals with IL-1β. As to the kind of experiment: ELISA of IL-1β secretion from LPS-stimulated RAW 264.7 cells. It counts as cell-based, mouse. Conditions: compound 50 μM 24 h, then LPS 1 μg/mL 2 h (FIG. 8). As for the experimental part:
RAW 264.7 cells were pretreated with each compound (50 μM) for 24 h followed by LPS (1 μg/mL) stimulation for another 2 h. The concentrations of IL-1β in RAW 264.7 cell culture supernatants were measured by ELISA kits and the inhibition rate of compound on the secretion of each pro-inflammatory cytokine was calculated. Data from three independent experiments were expressed as means±SD. *P<0.05, **P<0.01 compared with LPS-stimulated group.
Cell culture The RAW 264.7 cell line was purchased from the Cell Bank of Shanghai Institute of Biochemistry & Cell Biology at the Chinese Academy of Sciences (Shanghai, China) and cultured in DMEM supplemented with 10% (v/v) fetal bovine serum (FBS), 100 U/ml penicillin and 100 […], in a stable environment with 5% CO2 at 37° C. Before used in the following in vitro experiments, RAW 264.7 cells were pretreated with synthesized flavan-3-ol (25, 50 μM) for 24 h followed by LPS (1 μg/mL) stimulation for another 2 h.
Enzyme-Linked Immunosorbent Assay (ELISA) RAW 264.7 cells were treated with these synthesized flavan-3-ols (25, 50 μM) for 24 h followed by LPS (1 μg/mL) stimulation for another 2 h and the culture supernatant was collected. The concentrations of IL-1β, IL-6 and TNF-α in the culture supernatant of RAW 264.7 cells were determined according to the manufacturer's instructions of the Duo-set enzyme linked immune sorbent assay kits, purchased from R&D Systems Co. Ltd. (Minneapolis, MN, USA).
The increased pro-inflammatory cytokines production in RAW 264.7 cells has been reported to play an influential role in the inflammation response. To evaluate the anti-inflammatory effects of these flavan-3-ols in vitro, ELISA kits were employed to investigate their effects on the LPS (lipopolysaccharide)-induced pro-inflammatory cytokines production of RAW 264.7 cells. After treating with the flavan-3-ols (25 and 50 μM) and stimulated by LPS, the levels of three main pro-inflammation cytokines including IL-1β ([…]), IL-6 (interleukin-6), and TNF-α (tumor necrosis factor-α) in culture supernatant from RAW 264.7 cells were measured by ELISA kits, and then the inhibition rates of the flavan-3-ols on the secretion of each pro-inflammatory cytokine were calculated by the formula shown as follows.
[formula] In this formula, “L” refers to “the pro-inflammatory cytokine level in cell culture supernatant of LPS-induced group (L)” and “Lc” refers to “the pro-inflammatory cytokine level in cell culture supernatant of compound-treated group (Lc)”. Using this calculation, the reduced levels of pro-inflammation cytokines in the compound treated group would give higher values, which reflect higher inhibition rates.
FIG. 4a-c show the effect of flavan-3-ols on pro-inflammatory cytokine secretion in vitro. RAW 264.7 cells were pretreated with each compound (25, 50 μM) for 24 h followed by LPS (1 μg/mL) stimulation for another 2 h. The concentrations of IL-1β, IL-6, TNF-α in RAW 264.7 cell culture supernatants were measured by ELISA kits and the inhibition rate of compound on the secretion of each pro-inflammatory cytokine was calculated.
With `O[C@H]1Cc2cc(Cl)ccc2O[C@@H]1c1ccccc1` [3ae, (2R,3S)-6-chloro-2-phenylchroman-3-ol], the “inhibition rate of IL-1β secretion compared with enantiomer and racemic form” value was “higher inhibition rates than their enantiomers”.

`CCC[C@@H]1Oc2ccccc2C[C@H]1O` [3p′, (2S,3R)-2-propylchroman-3-ol]: the “inhibition rate of IL-1β secretion compared with enantiomer and racemic form” value is “higher inhibition rate of IL-1β secretion than its racemic mixture”.

The next data set deals with LPS-stimulated RAW 264.7 cells. As to the kind of experiment: RNA-sequencing analysis with GO and KEGG enrichment. It counts as cell-based, mouse. The settings on record: 50 μM; vs LPS-stimulated group; KEGG-classified inflammation-related genes. As for the experimental part:
RNA-sequencing analysis RAW 264.7 cells were treated with each flavan-3-ol (25, 50 μM) for 24 h followed by LPS (1 μg/mL) stimulation for another 2 h. Cells were collected and then directly prepared for cDNAs amplification and RNA-Seq library construction. Total RNA was isolated with TRIzol reagent from each group. A complementary DNA library was prepared and sequencing was performed according to the Illumina standard protocol developed by Suzhou GENEWIZ Biological Technology Co., Ltd. (https://www.genewiz.com). […] After filtering, reference genome and gene model annotation files were downloaded from a genome website browser (NCBI/UCSC/Ensembl). Indexes of the reference genome were built using Bowtie v2.0.6 and paired-end clean reads were aligned to the reference genome using TopHat v2.0.9. Bowtie was used for a BWT (Burrows-Wheeler Transformer) algorithm for mapping reads to the genome and Tophat can generate a database of splice junctions based on the gene model annotation file and thus achieve a better mapping result than other non-splice mapping tools. For the quantification of gene expression level, HTSeq V0.6.1 was used to count the read numbers mapped for each gene. The RPKM of each gene was calculated based on the gene read counts mapped to this gene. A differential expression analysis was performed using the DESeq R package (1.10.1). For clustering, the inventors clustered different samples to see the correlation using hierarchical clustering distance method with the function of heatmap, SOM (Self-organization mapping) and k means using silhouette coefficient to adapt the optimal classification with default parameter in R. The complete RNA-seq datasets in this manuscript captioned has been deposited at GEO database (http://www.ncbi.nlm.nih.gov/geo/) under accession ID GSE181052.
Gene ontology (GO) and KEGG enrichment analysis GO enrichment analysis of differentially expressed genes was implemented by the GOseq R Package, in which gene length bias was corrected. GO analysis was performed with the DAVID online tool (https://david.ncifcrf.gov/). Top GO categories were selected according to the P-values. Pathways of differentially expressed genes were analyzed by the KEGG database (http://www.kegg.jp/kegg/). The inventors used KOBAS software to test the statistical enrichment of differential expression genes in KEGG pathways.
RNA-seq analysis of downstream genes regulated by flavan-3-ols. […] RNA-seq analysis was performed to further study the effects of compounds 3m, 3o, 3p, 3ae and 3ag on gene transcriptional pathways related to inflammation. RAW 264.7 cells were used in the RNA-seq analysis, in which cells were pretreated with each compound (50 μM) for 24 h followed by LPS (1 μg/mL) stimulation for another 2 h. […] Next, the inventors focused on genes related to inflammatory reactions and inflammation-related diseases (inflammation-related genes) based on the gene and pathway classification of Kyoto Encyclopedia of Genes and Genomes (KEGG database).
To further analyze the functional distribution of differentially-expressed genes in relation to different biological processes, cellular components and molecular functions, gene ontology (GO) enrichment analysis was performed. The histogram of GO enrichment of differentially-expressed genes was presented.
Furthermore, to determine the biochemical metabolic pathways and signal transduction pathways involved in differentially expressed genes regulated by compound 3ag, KEGG pathway analysis was then performed.
Consider `O[C@H]1Cc2cc(Cl)ccc2O[C@@H]1c1ccccc1` [3ae, (2R,3S)-6-chloro-2-phenylchroman-3-ol], for which the inflammation-related genes downregulated result is on record as “downregulated parts of inflammation-related genes”.

Take `CCC[C@H]1Oc2ccccc2C[C@@H]1O` [3p, (2R,3S)-2-propylchroman-3-ol]: the inflammation-related genes downregulated result is on record as “downregulated parts of inflammation-related genes”.

Test system in another data set: not given
Experiment: not given
Conditions: not given
What is called melting point is the temperature of the solid-liquid transition. Molecule `COCOc1ccc2c(c1)C=C[C@H](c1ccccc1)O2` [1ab, (R)-6-(methoxymethoxy)-2-phenyl-2H-chromene] had a melting point of 69 to 70 °C.

In turn, `Oc1ccc2c(c1)C=C[C@H](c1ccccc1)O2` [1ac, (R)-2-phenyl-2H-chromen-6-ol] returned a melting point of 81 to 82 °C.

`C1=C[C@H](c2ccc(OCc3ccccc3)cc2)Oc2ccccc21` [1d, (R)-2-(4-(benzyloxy)phenyl)-2H-chromene] registered a melting point of 92 to 93 °C.

Molecule `COCOc1ccc2c(c1)C[C@H](O)[C@@H](c1ccccc1)O2` [3ab, (2R,3S)-6-(methoxymethoxy)-2-phenylchroman-3-ol] returned a melting point of 65 to 66 °C.

On to `Oc1ccc2c(c1)C[C@H](O)[C@@H](c1ccccc1)O2` [3ac, (2R,3S)-2-phenylchromane-3,6-diol], for which the melting point is 187 to 188 °C.

In turn, `O[C@H]1Cc2cc(Cl)ccc2O[C@@H]1c1ccccc1` [3ae, (2R,3S)-6-chloro-2-phenylchroman-3-ol] returned a melting point of 130 to 131 °C.

On to `Cc1cc2c(cc1Cl)C[C@H](O)[C@@H](c1ccccc1)O2` [3af, (2R,3S)-6-chloro-7-methyl-2-phenylchroman-3-ol], for which the melting point is 129 to 130 °C.

On to `O[C@H]1Cc2cc(Cl)ccc2O[C@@H]1c1ccc(Cl)cc1` [3ah, (2R,3S)-6-chloro-2-(4-chlorophenyl)chroman-3-ol], for which the melting point was in the range of 138 to 139 °C.

With `Cc1ccc([C@H]2Oc3ccccc3C[C@@H]2O)cc1` [3b, (2R,3S)-2-(p-tolyl)chroman-3-ol], the melting point lay within 68 to 69 °C.

As to `COc1ccc([C@H]2Oc3ccccc3C[C@@H]2O)cc1` [3c, (2R,3S)-2-(4-methoxyphenyl)chroman-3-ol], the melting point fell in the range of 89 to 90 °C.

The molecule `O[C@H]1Cc2ccccc2O[C@@H]1c1ccc(OCc2ccccc2)cc1` [3d, (2R,3S)-2-(4-(benzyloxy)phenyl)chroman-3-ol] returned a melting point of 113 to 114 °C.

Consider `COCOc1ccc([C@H]2Oc3ccccc3C[C@@H]2O)cc1` [3e, (2R,3S)-2-(4-(methoxymethoxy)phenyl)chroman-3-ol], for which the melting point was in the range of 97 to 98 °C.

`O[C@H]1Cc2ccccc2O[C@@H]1c1ccc(F)cc1` [3f, (2R,3S)-2-(4-fluorophenyl)chroman-3-ol]: the melting point lay within 99 to 100 °C.

Molecule `O[C@H]1Cc2ccccc2O[C@@H]1c1ccc(Cl)cc1` [3g, (2R,3S)-2-(4-chlorophenyl)chroman-3-ol] yielded a melting point of 109 to 110 °C.

Turning to `O[C@H]1Cc2ccccc2O[C@@H]1c1ccc(Br)cc1` [3h, (2R,3S)-2-(4-bromophenyl)chroman-3-ol], the melting point lay within 109 to 110 °C.

In the case of `Cc1ccccc1[C@H]1Oc2ccccc2C[C@@H]1O` [3j, (2R,3S)-2-(o-tolyl)chroman-3-ol], the melting point was 91 to 92 °C.

The molecule `Cc1cccc([C@H]2Oc3ccccc3C[C@@H]2O)c1` [3k, (2R,3S)-2-(m-tolyl)chroman-3-ol] yielded a melting point of 88 to 89 °C.

`Cc1cc(C)cc([C@H]2Oc3ccccc3C[C@@H]2O)c1` [3l, (2R,3S)-2-(3,5-dimethylphenyl)chroman-3-ol] gave a melting point of 135 to 136 °C.

Take `Cc1cccc2c1C[C@H](O)[C@@H](c1ccccc1)O2` [3q, (2R,3S)-5-methyl-2-phenylchroman-3-ol]: the melting point was in the range of 116 to 117 °C.

Take `Cc1ccc2c(c1)C[C@H](O)[C@@H](c1ccccc1)O2` [3r, (2R,3S)-6-methyl-2-phenylchroman-3-ol]: the melting point lay in the range of 109 to 110 °C.

With `Cc1ccc2c(c1)O[C@H](c1ccccc1)[C@@H](O)C2` [3s, (2R,3S)-7-methyl-2-phenylchroman-3-ol], the melting point is 95 to 96 °C.

`Cc1cccc2c1O[C@H](c1ccccc1)[C@@H](O)C2` [3t, (2R,3S)-8-methyl-2-phenylchroman-3-ol] came in with a melting point of 68 to 69 °C.

In turn, `Cc1cc(C)c2c(c1)O[C@H](c1ccccc1)[C@@H](O)C2` [3u, (2R,3S)-5,7-dimethyl-2-phenylchroman-3-ol] displayed a melting point of 149 to 150 °C.

In the case of `Cc1cc2c(cc1C)O[C@H](c1ccccc1)[C@@H](O)C2` [3v, (2R,3S)-6,7-dimethyl-2-phenylchroman-3-ol], the melting point is 151 to 152 °C.

In turn, `COc1cccc2c1C[C@H](O)[C@@H](c1ccccc1)O2` [3w, (2R,3S)-5-methoxy-2-phenylchroman-3-ol] displayed a melting point of 116 to 117 °C.

`COc1ccc2c(c1)C[C@H](O)[C@@H](c1ccccc1)O2` [3x, (2R,3S)-6-methoxy-2-phenylchroman-3-ol] gave a melting point of 118 to 119 °C.

Consider `COc1cccc2c1O[C@H](c1ccccc1)[C@@H](O)C2` [3z, (2R,3S)-8-methoxy-2-phenylchroman-3-ol], for which the melting point was 151 to 152 °C.

As for `Oc1ccc([C@H]2Oc3ccccc3C[C@@H]2O)cc1` [compound 5, (2R,3S)-2-(4-hydroxyphenyl)chroman-3-ol], the melting point lay in the range of 106 to 107 °C.
